The test system of experiment [1] is C57BL/6 mouse with induced depression and anxiety disorder. Nature of the experiment: Forced swim test (FST). The note with it: 150 mg/kg doxepin for 14 days, test on Day 15, vs control group. It counts as in vivo. How it is done: (§1) Fraxinus rhynchophylla extract was dissolved in physiological saline to have a concentration of 100 mg/kg for each, and then aliquoted. One hour before applying the stress for 14 days, the sample was administered via an oral route.
(§2) A 7-week old male C57BL/6 mouse was acclimated for 1 week, and then exposed to a stress everyday between 10:00 to 14:00 o'clock. Specifically, 1 hour after the oral administration of a sample, an electric shock with strength of 0.5 mA was applied to the foot sole of the mouse for 1 sec with an interval of 10 seconds, for 2 minutes in total, by using a shuttle box (JD-SI-10, JEUNG DO BIO & PLANT CO, LTD, Seoul, S. Korea). After applying the electric shock, the mouse was put to a hemicylindrical restraining device (JD-R 05A, JEUNG DO BIO & PLANT CO, LTD, Seoul, S. Korea) made of 30 mm-thick acryl, one animal in each device, and then restrained in the immobile state for 2 hours. […]
Forced swim test is a test to determine despair among the symptoms of depression, and the immobility of a mouse was checked using a cylinder having a depth which prevents the animal from touching its paws or tail to the floor of the cylinder. […] Then, the immobility time during 4 minutes, i.e., excluding initial 2 minutes as adaptation period from the total 6 minutes, was measured.

The subject of a further experiment is BDNF and mBDNF. Description: Expression of BDNF and mBDNF in hippocampal tissues (Western blot). It counts as in vivo, mouse. The note with it: 150 mg/kg doxepin for 14 days, tissues on Day 17, vs control group. Here is the method:
as §1, §2
Protein expression pattern in brain hippocampal tissues which have been collected from each test animal was determined by Western blot analysis. […] After obtaining the protein amount in each sample, the protein was quantified to 1 μg/μl, and then the expression amount of protein was measured by using Mini PROTEAN TGX Gels.
A general note: Immunoblotting shows a protein as a band on a membrane.

A further experiment deals with cortisol. Description: Cortisol level in blood serum (ELISA). It counts as in vivo, mouse. The note with it: 150 mg/kg doxepin for 14 days, blood on Day 17, vs control group. How it is done:
as §1
(§3) A 7-week old male C57BL/6 mouse was acclimated for 1 week, and then exposed to a stress everyday between 10:00 to 14:00 o'clock. Specifically, 1 hour after the oral administration of a sample, an electric shock with strength of 0.5 mA was applied to the foot sole of the mouse for 1 sec with an interval of 10 seconds, for 2 minutes in total, by using a shuttle box (JD-SI-10, JEUNG DO BIO & PLANT CO, LTD, Seoul, S. Korea). After applying the electric shock, the mouse was put to a hemicylindrical restraining device (JD-R 05A, JEUNG DO BIO & PLANT CO, LTD, Seoul, S. Korea) made of 30 mm-thick acryl, one animal in each device, and then restrained in the immobile state for 2 hours.
(§4) In addition, for the control group, the 12-hour day and night cycle was maintained, but light illumination was applied to the test group for 24 hours to disrupt the regular living pattern, and thus a sleep-interfering environment was created (FIG. 5).
The cortisol level in blood serum separated from each test animal was measured. […] Absorbance at 405 nm was then measured.
Background: An ELISA detects its analyte on a solid surface through an enzyme-linked reagent.

Experiment [2] concerns C57BL/6 mouse with induced depression and anxiety disorder. Description: Open field test (OFT). The conditions noted are these: 150 mg/kg doxepin for 14 days, test on Day 15, vs control group. It counts as in vivo. How it is done:
as §1
(§5) A 7-week old male C57BL/6 mouse was acclimated for 1 week, and then exposed to a stress everyday between 10:00 to 14:00 o'clock. Specifically, 1 hour after the oral administration of a sample, an electric shock with strength of 0.5 mA was applied to the foot sole of the mouse for 1 sec with an interval of 10 seconds, for 2 minutes in total, by using a shuttle box (JD-SI-10, JEUNG DO BIO & PLANT CO, LTD, Seoul, S. Korea). […]
Open field test is to determine the degree of anxiety, which is one symptom of depression, by measuring the voluntary movement of a mouse after entering an unfamiliar field for the first time. At the center (15 cm×15 cm) of an open box with a dimension of 30 cm×30 cm×30 cm, which is made of white acryl, a C57BL/6 mouse which has been induced to have depression and anxiety disorder was placed, and then total travel distance and frequency of center entry for 10 minutes were measured. For the measurement, after recording using a video camera, the overall movement of the C57BL/6 mouse was analyzed by using Video tracking software (SMART 3.0, Panlab, Spain). […]

The next experiment has as its system pCREB. Nature of the experiment: Expression ratio of pCREB protein in hippocampal tissues (Western blot). It counts as in vivo, mouse. The note with it: 150 mg/kg doxepin for 14 days, tissues on Day 17, vs control group.
The next experiment deals with serotonin. Nature of the experiment: Serotonin level in blood serum (ELISA). It counts as in vivo, mouse. The note with it: 150 mg/kg doxepin for 14 days, blood on Day 17, vs control group. How it is done: as §1, §3, §4
The serotonin level in blood serum separated from each test animal was measured. […] Upon the completion of the reaction, absorbance at a wavelength of 405 nm was measured by using a microplate reader.

Experiment [3] can be described thus: Bodyweight change in mouse with induced depression and anxiety disorder. It counts as in vivo. The note with it: 150 mg/kg doxepin, Day 7 or Day 14, vs control group. Here is the method:
as §1, §5
A change in body weight caused by administration of the ethanol extract of Fraxinus rhynchophylla of the present invention was determined in the animal model with induced depression and anxiety disorder. Specifically, the bodyweight of a mouse was measured, before the exposure to stress (Day 0), or on Day 7 or Day 14 after the exposure to stress for the normal group, the control group (i.e., group induced with depression and anxiety disorder), the test group (i.e., group administered with the ethanol extract of Fraxinus rhynchophylla of the present invention), and the positive control group (i.e., group administered with doxepin) (FIG. 6). […]

On to `CN(C)CCC=C1c2ccccc2COc2ccccc21` [doxepin], for which the immobility time result in experiment [1] is listed as “decreased in statistically significant sense”. In addition, in the experiment on BDNF and mBDNF, the “relative expression amount of BDNF in hippocampal tissues” value is reported as “increase in statistically significant sense” and the “relative expression amount of mBDNF in hippocampal tissues” value is on record as “increase in statistically significant sense”. The blood cortisol level result with cortisol was “decreased in statistically significant sense”. Besides, in experiment [2], the “number of center entry” value is reported as “increased in statistically significant sense” and the “travel distance within the center zone” value is listed as “increase in statistically significant sense”. Moreover, the “expression ratio of pCREB protein (pCREB/CREB) in hippocampal tissues” value with pCREB is listed as “increase in statistically significant sense”. Also, the “serotonin hormone level in blood” value with serotonin was “increased in statistically significant sense”. Also, the “bodyweight (gain rate)” value in experiment [3] is recorded as “increased in statistically significant sense”.
